Source: patent US10925874B2, “Substituted pyrazolopyrimidines as glucocerebrosidase activators” (The United States of America, as Represented by the …, priority 2010, dated 2021)
“And” between values parts separate entries of the source, which are not always exact repeats. Equal entries are not always repeated.

Target: T1, N370S glucocerebrosidase from human spleen homogenate (Homo sapiens, UniProt P04062, N409S)
T1 construct: N370S glucocerebrosidase from human spleen homogenate as the enzyme preparation; from tissue; host or cells: human spleen homogenate
T1 sequence (P04062 40-536 N409S): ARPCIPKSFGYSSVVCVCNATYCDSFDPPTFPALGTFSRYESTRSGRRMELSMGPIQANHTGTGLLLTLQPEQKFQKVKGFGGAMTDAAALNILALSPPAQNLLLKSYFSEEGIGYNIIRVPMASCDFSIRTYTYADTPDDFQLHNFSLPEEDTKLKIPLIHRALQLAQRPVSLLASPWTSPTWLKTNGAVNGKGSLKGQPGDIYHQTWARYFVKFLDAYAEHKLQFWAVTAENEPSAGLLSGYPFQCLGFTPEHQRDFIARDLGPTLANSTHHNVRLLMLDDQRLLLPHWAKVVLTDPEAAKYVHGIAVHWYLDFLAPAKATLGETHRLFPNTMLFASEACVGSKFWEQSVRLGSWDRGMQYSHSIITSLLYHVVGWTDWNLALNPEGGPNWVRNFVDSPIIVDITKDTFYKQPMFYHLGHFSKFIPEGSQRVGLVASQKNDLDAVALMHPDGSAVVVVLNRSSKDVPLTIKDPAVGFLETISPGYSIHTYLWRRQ
Assay: qHTS fluorogenic enzyme assay for activators of N370S glucocerebrosidase (4-methylumbelliferyl-beta-D-glucopyranoside substrate)
Assay type: biochemical
Conditions: pH 5.0, 37° C. 40 min
From the text: qHTS Assay for Inhibitors and Activators of N370S glucocerebrosidase as a Potential Chaperone Treatment of Gaucher Disease: Primary Screen Confirmation
This is a fluorogenic enzyme assay with 4-methylumbelliferyl-beta-D-glucopyranoside as the substrate and N370S glucocerebrosidase from human spleen homogenate as the enzyme preparation. Upon the hydrolysis of this fluorogenic substrate, the resulting product, […] which can be detected by a standard fluorescence plate reader. Data were normalized to the controls for basal activity (without enzyme) and 100% activity (with enzyme). The AC50 values were determined from concentration-response data modeled with the standard Hill equation.
Human spleen homogenate is prepared as follows by homogenizing spleen with assay buffer containing 50 mM citric acid (titrated with potassium phosphate to pH 5.0), 100 mM potassium chloride, 10 mM sodium chloride, 1 mM magnesium chloride, 0.01% Tween-20. The protein concentration of the human spleen homogenate is approximated 1.35 ug/ul.
The assay is performed in 1536 well plates according to the following protocol. (1) 2 ul spleen homogenate ([…] final) is added to each well. (2) 23 nL test compound in DMSO solution is added to each well. The final concentration of compound in the test well is 0.5 nM to 58 uM. (3) 2 ul of substrate (1 mM final) are added to each well. (4) Incubate assay plates at 37° C. for 40 min. (5) Add 2 ul stop solution (1M NaOH and 1M Glycine mixture, pH 10) to each well. (6) Detect the assay plate in a ViewLux plate reader (PerkinElmer) using 365 nm excitation with emission at 440 nm.

| SMILES | AC50 |
| --- | --- |
| O=C(Nc1ccc2c(c1)OCCO2)c1cnn2c1NC(=C1CC1)C=C2C(F)F [NCGC00182167-01, 5-cyclopropylidene-7-(difluoromethyl)-N-(2,3-dihydrobenzo[b][1,4]dioxin-6-yl)-4,5-dihydropyrazolo[1,5-a]pyrimidine-3-carboxmaide] | 8.91 µM |
| O=C(NC1CCCC1)c1cnn2c1NC(=C1CC1)C=C2C(F)F [NCGC00182170-01, N-cyclopentyl-5-cyclopropylidene-7-(difluoromethyl)-4,5-dihydropyrazolo[1,5-a]pyrimidine-3-carboxamide] | 12.6 µM |
| O=C(Nc1ccc2c(c1)CCC2)c1cnn2c1NC(=C1CC1)C=C2C(F)F [NCGC00182174-01, 5-cyclopropylidene-7-(difluoromethyl)-N-(2,3-dihydro-1H-inden-5-yl)-4,5-dihydropyrazolo[1,5-a]pyrimidine-3-carboxamide] | 3.98 µM |
| O=C(NC1CCCCC1)c1cnn2c1NC(=C1CC1)C=C2C(F)F [NCGC00182175-01, N-cyclohexyl-5-cyclopropylidene-7-(difluoromethyl)-4,5-dihydropyrazolo[1,5-a]pyrimidine-3-carboxamide] | 12.6 µM |
| CC(C)(C)C1CCC(NC(=O)c2cnn3c2NC(=C2CC2)C=C3C(F)F)CC1 (stereo not drawn) [NCGC00182182-01, N-(4-tet-butylcyclohexyl)-5-cyclopropylidene-7-(difluoromethyl)-4,5-dihydropyrazolo[1,5-a]pyrimidine-3-carboxamide] | 11.2 µM |
| O=C(Nc1cccc(Nc2ccccc2)c1)c1cnn2c1NC(=C1CC1)C=C2C(F)F [NCGC00182185-01, 5-cyclopropylidene-7-(difluoromethyl)-N-(3-(phenylamino)phenyl)-4,5-dihydropyrazolo[1,5-a]pyrimidine-3-carboxamide] | 12.6 µM |
| O=C(Nc1ccccc1Sc1ccccc1)c1cnn2c1NC(=C1CC1)C=C2C(F)F [NCGC00182186-01, 5-cyclopropylidene-7-(difluoromethyl)-N-(2-(phenylthio)phenyl)-4,5-dihydropyrazolo[1,5-a]pyrimidine-3-carboxamide] | 13 µM and 7.08 µM |
| O=C(Nc1ccccc1Sc1ccccc1)c1cnn2c1NC(=C1CC1)C=C2C(F)(F)F [NCGC00182190-01, 5-cyclopropylidene-N-(2-(phenylthio)phenyl)-7-(trifluoromethyl)-4,5-dihydropyrazolo[1,5-a]pyrimidine-3-carboxamide] | 14.1 µM |
| C=C1C=C(C)n2ncc(C(=O)NCCCCCC)c2N1 [NCGC00182197-01, N-hexyl-7-methyl-5-methylene-4,5-dihydropyrazolo[1,5-a]pyrimidine-3-carboxamide] | 15.8 µM |
| C=C1C=C(C)n2ncc(C(=O)Nc3ccc(C)cn3)c2N1 [NCGC00182198-01, 7-methyl-5-methylene-N-(5-methylpyridin-2-yl)-4,5-dihydropyrazolo[1,5-a]pyrimidine-3-carboxamide] | 15.8 µM |
| Cc1cc(C)n2ncc(C(=O)NCc3cccc(Cl)c3)c2n1 [NCGC00187965-01, N-(3-chlorobenzyl)-5,7-dimethylpyrazolo[1,5-a]pyrimidine-3-carboxamide] | 18.3 µM |
| Cc1cc(C)n2ncc(C(=O)Nc3cc(F)cc(F)c3)c2n1 [NCGC00187967-01, N-(3,5-difluorophenyl)-5,7-dimethylpyrazolo[1,5-a]pyrimidine-3-carboxamide] | 6.18 µM |
| Cc1cc(C)n2ncc(C(=O)Nc3ccc4c(c3)CCC4)c2n1 [NCGC00187969-01, N-(2,3-dihydro-1H-inden-5-yl)-5,7-dimethylpyrazolo[1,5-a]pyrimidine-3-carboxamide] | 2.59 µM |
| CCc1ccc(NC(=O)c2cnn3c(C)cc(C)nc23)cc1 [NCGC00187970-01, N-(4-ethylphenyl)-5,7-dimethylpyrazolo[1,5-a]pyrimidine-3-carboxamide] | 3.26 µM |

Results, then the compound that gave them:

| AC50 | SMILES |
| --- | --- |
| 31.6 µM | C=C1C=C(C(F)F)n2ncc(C(=O)NCCc3ccccc3Cl)c2N1 [NCGC00182151-01, N-(2-chlorophenethyl)-7-(difluoromethyl)-5-methylene-4,5-dihydropyrazolo[1,5-a]pyrimidine-3-carboxamide] |
| 31.6 µM | C=C1C=C(C(F)F)n2ncc(C(=O)N3CCN(c4ccccc4)CC3)c2N1 [NCGC00182152-01, (7-(difluoromethyl)-5-methylene-4,5-dihydropyrazolo[1,5-a]pyrimidin-3-yl)(4-phenylpiperazin-1-yl)methanone] |
| 11.2 µM | C=C1C=C(C(F)F)n2ncc(C(=O)Nc3ccc(N(CC)CC)cc3)c2N1 [NCGC00182154-01, N-(4-(diethylamino)phenyl)-7-(difluoromethyl)-5-methylene-4,5-dihydropyrazolo[1,5-a]pyrimidine-3-carboxamide] |
| 15.8 µM | C=C1C=C(C(F)F)n2ncc(C(=O)NCCc3ccc(Cl)cc3)c2N1 [NCGC00182159-01, N-(4-chlorophenethyl)-7-(difluoromethyl)-5-methylene-4,5-dihydropyrazolo[1,5-a]pyrimidine-3-carboxamide] |
| 2.51 µM | C=C1C=C(C(F)F)n2ncc(C(=O)Nc3ccccc3OCC)c2N1 [NCGC00182160-01, 7-(difluoromethyl)-N-(2-ethoxyphenyl)-5-methylene-4,5-dihydropyrazolo[1,5-a]pyrimidine-3-carboxamide] |
| 15.8 µM | C=C1C=C(C(F)F)n2ncc(C(=O)NCc3ccccc3C(F)(F)F)c2N1 [NCGC00182161-01, 7-(difluoromethyl)-5-methylene-N-(2-(trifluoromethyl)benzyl)-4,5-dihdyropyrazolo[1,5-a]pyrimidine-3-carboxamide] |
| 14.1 µM | C=C1C=C(C(F)F)n2ncc(C(=O)NCc3ccccc3OC)c2N1 [NCGC00182162-01, 7-(difluoromethyl)-N-(2-methoxybenzyl)-5-methylene-4,5-dihydropyrazolo[1,5-a]pyrimidine-3-carboxamide] |
| 10 µM | C=C1C=C(C)n2ncc(C(=O)Nc3ccccc3C(=O)OC)c2N1 [NCGC00182165-01, methyl 2-(7-methyl-5-methylene-4,5-dihydropyrazolo[1,5-a]pyrimidine-3-carboxamido)benzoate] |
| 3.98 µM | C=C1C=C(C)n2ncc(C(=O)Nc3ccc(F)cc3F)c2N1 [NCGC00182166-01, N-(2,4-difluorophenyl)-7-methyl-5-methylene-4,5-dihydropyrazolo[1,5-a]pyrimidine-3-carboxamide] |
| 3.16 µM | O=C(Nc1cc(F)ccc1F)c1cnn2c1NC(=C1CC1)C=C2C(F)F [NCGC00182172-01, 5-cyclopropylidene-7-(difluoromethyl)-N-(2,5-difluorophenyl)-4,5-dihydropyrazolo[1,5-a]pyrimidine-3-carboxamide] |
| 14.3 µM | O=C(NC1CCCc2ccccc21)c1cnn2c1NC(=C1CC1)C=C2C(F)F (stereo not drawn) [NCGC00182176-01, 5-cyclopropylidene-7-(difluoromethyl)-N-(1,2,3,4-tetrahydronaphthalen-1-yl)-4,5-dihydropyrazolo[1,5-a]pyrimidine-3-carboxamide] |
| 2.51 µM | O=C(Nc1ccc(Br)cc1F)c1cnn2c1NC(=C1CC1)C=C2C(F)F [NCGC00182179-01, N-(4-bromo-2-fluorophenyl)-5-cyclopropylidene-7-(difluoromethyl)-4,5-dihydropyrazolo[1,5-a]pyrimidine-3-carboxamide] |
| 12.6 µM | O=C(Nc1ccccc1Br)c1cnn2c1NC(=C1CC1)C=C2C(F)F [NCGC00182188-01, N-(2-bromophenyl)-5-cyclopropylidene-7-(difluoromethyl)-4,5-dihydropyrazolo[1,5-a]pyrimidine-3-carboxamide] |
